# According to patent publication US7989471B2, “Macrocyclic inhibitors of hepatitis C virus” (Tibotec Pharmaceuticals Ltd., priority 2005, dated 2011):
# Assays:
# [1] = system: HCV replicons (NS3-NS5B regions of HCV type Ib) in Huh-7 luc/neo cells; assay: HCV replicon assay (Huh-Luc luciferase reporter); assay type: cell-based; settings: Hepatitis C virus, Huh-7, 72 h; Huh-Luc replicon cells, three days incubation, luciferase activity; read-out: EC50
# Method: The in vitro antiviral activity against HCV of the compounds of formula (I) was tested in a cellular HCV replicon system based on Lohmann et al. (1999) Science 285:110-113, with the further modifications described by Krieger et al. (2001) Journal of Virology 75: 4614-4624, which is further exemplified in the examples section. This model, while not a complete infection model for HCV, is widely accepted as the most robust and efficient model of autonomous HCV RNA replication currently available. […] It will be appreciated that it is important to distinguish between compounds that specifically interfere with HCV functions from those that exert cytotoxic or cytostatic effects in the HCV replicon model, and as a consequence cause a decrease in HCV RNA or linked reporter enzyme concentration. Assays are known in the field for the evaluation of cellular cytotoxicity based for example on the activity of mitochondrial enzymes using fluorogenic redox dyes such as resazurin. Furthermore, cellular counter screens exist for the evaluation of non-selective inhibition of linked reporter gene activity, such as firefly luciferase. Appropriate cell types can be equipped by stable transfection with a luciferase reporter gene whose expression is dependent on a constitutively active gene promoter, and such cells can be used as a counter-screen to eliminate non-selective inhibitors.
# The compounds of formula (I) were examined for activity in the inhibition of HCV RNA replication in a cellular assay. […] The cellular assay was based on a bicistronic expression construct, as described by Lohmann et al. (1999) Science vol. 285 pp. 110-113 with modifications described by Krieger et al. (2001) Journal of Virology 75: 4614-4624, in a multi-target screening strategy. In essence, the method was as follows.
# The assay utilized the stably transfected cell line Huh-7 luc/neo (hereafter referred to as Huh-Luc). This cell line harbors an RNA encoding a bicistronic expression construct comprising the wild type NS3-NS5B regions of HCV type Ib translated from an Internal Ribosome Entry Site (IRES) from encephalomyocarditis virus (EMCV), preceded by a reporter portion (FfL-luciferase), and a selectable marker portion (neo^R, neomycine phosphotransferase). The construct is bordered by 5′ and 3′ NTRs (non-translated regions) from HCV type Ib. Continued culture of the replicon cells in the presence of G418 (neo^R) is dependent on the replication of the HCV RNA. The stably transfected replicon cells that express HCV RNA, which replicates autonomously and to high levels, encoding inter alia luciferase, are used for screening the antiviral compounds.
# The replicon cells were plated in 384 well plates in the presence of the test and control compounds which were added in various concentrations. Following an incubation of three days, HCV replication was measured by assaying luciferase activity (using standard luciferase assay substrates and reagents and a Perkin Elmer ViewLux™ ultraHTS microplate imager). Replicon cells in the control cultures have high luciferase expression in the absence of any inhibitor. The inhibitory activity of the compound on luciferase activity was monitored on the Huh-Luc cells, enabling a dose-response curve for each test compound.
# [2] = In vitro metabolic blocking by ritonavir in human liver microsomes; assay type: in vitro ADME; settings: 3 μM test compound, human liver microsomes 1 mg/ml, 37° C., % of initial concentration
# Method: Compound nr 11 of Table 1 was tested in a metabolic blocking experiment using 3 μM test compound together with 10 μM ritonavir acting as booster.
# The test compound and ritonavir were added to human liver microsomes (protein concentration 1 mg/ml) suspended in potassium phosphate buffer (pH=7.4), to get final reaction mixture concentrations of 3 μM test compound and 10 μM ritonavir. In the non-boosted parallel reactions, ritonavir was not added. Boiled human liver microsomes were used for blank experiments. After addition (in a 1:3 ratio) of a cofactor mixture consisting of β-nicotinamide adenine dinucleotide phosphate (β-NADP, 0.5 mg/ml, 653.2 μM), D-Glucose-6-phosphate (2 mg/ml, 7.1 mM), Glucose-6-phosphate dehydrogenase (1.5 U/ml) in 2% NaHCO3, the reaction mixture was incubated at 37° C. for 30 or 120 minutes after which the reaction was stopped by increasing the temperature to 95° C. Test compound concentrations were determined using HPLC-MS.
# Values are percentages of the test compound detected after the indicated incubation times as compared to the initial test compound concentration. Each value is the mean of the results of two independent experiments.
SMILES,EC50 [1] [µM],other results
"COc1ccc2c(O[C@@H]3C[C@H]4C(=O)N[C@]5(C(=O)NS(=O)(=O)C6CC6)C[C@H]5/C=C\CCCCCCC(=O)N4C3)cc(-c3nc(C(C)C)cs3)nc2c1 [Compound 11, N-[[18-[2-[4-(isopropyl)thiazol-2-yl]-7-methoxyquinolin-4-yloxy]-2,15-dioxo-3,16-diazatricyclo[14.3.0.0^4,6]nonadec-7-en-4-yl]carbonyl](cyclopropyl)sulfonamide]",0.017,"% Detected Compound ([2]; 30′ incubation, No Booster): 28%; % Detected Compound ([2]; 30′ incubation, with 10 μM ritonavir): 79%; % Detected Compound ([2]; 120′ incubation, No Booster): 0%; % Detected Compound ([2]; 120′ incubation, with 10 μM ritonavir): 91%"
"COc1ccc2c(O[C@@H]3C[C@H]4C(=O)N[C@]5(C(=O)O)C[C@H]5/C=C\CCCCCC(=O)N4C3)cc(-c3nc(C(C)C)cs3)nc2c1C [Compound 58, 17-[2-(4-isopropylthiazol-2-yl)-7-methoxy-8-methylquinolin-4-yloxy]-2,14-dioxo-3,15-diazatricyclo[13.3.0.0^4,6]octadec-7-ene-4-carboxylic acid]",1.59,–
"COc1ccc2c(O[C@@H]3C[C@H]4C(=O)N[C@]5(C(=O)NS(=O)(=O)C6CC6)C[C@H]5/C=C\CCCCCC(=O)N4C3)cc(-c3nc(C(C)C)cs3)nc2c1C [Compound 59, N-[17-[2-(4-isopropylthiazol-2-yl)-7-methoxy-8-methylquinolin-4-yloxy]-2,14-dioxo-3,15-diazatricyclo[13.3.0.0^4,6]octadec-7-ene-4-carbonyl]-(cyclopropyl)sulfonamide]",0.003,–
"COc1ccc2c(O[C@@H]3C[C@H]4C(=O)N[C@]5(C(=O)NS(=O)(=O)C6(C)CC6)C[C@H]5/C=C\CCCCCC(=O)N4C3)cc(-c3nc(C(C)C)cs3)nc2c1C [Compound 60, N-[17-[2-(4-isopropylthiazol-2-yl)-7-methoxy-8-methylquinolin-4-yloxy]-2,14-dioxo-3,15-diazatricyclo[13.3.0.0^4,6]octadec-7-ene-4-carbonyl]-(1-methylcyclopropyl)sulfonamide]",0.014,–
"COc1ccc2c(O[C@@H]3C[C@H]4C(=O)N[C@]5(C(=O)NS(=O)(=O)C6(C)CC6)C[C@H]5/C=C\CCCCCC(=O)N4C3)cc(-c3nc(C(C)C)cs3)nc2c1Cl [Compound 61, N-[17-[8-chloro-2-(4-isopropylthiazol-2-yl)-7-methoxyquinolin-4-yloxy]-2,14-dioxo-3,15-diazatricyclo[13.3.0.0^4,6]octadec-7-ene-4-carbonyl]-(1-methylcyclopropyl)sulfonamide]",0.001,–
"COc1ccc2c(O[C@@H]3C[C@H]4C(=O)N[C@]5(C(=O)NS(=O)(=O)C6CC6)C[C@H]5/C=C\CCCCCC(=O)N4C3)cc(-c3nc(C(C)C)cs3)nc2c1 [Compound 63, N-[17-[2-(4-isopropylthiazol-2-yl)-7-methoxyquinolin-4-yloxy]-2,14-dioxo-3,15-diazatricyclo[13.3.0.0^4,6]octadec-7-ene-4-carbonyl]-(cyclopropyl)sulfonamide]",0.024,–
